Data taken from ChEMBL document CHEMBL5523725, “Fragment-Based Anti-inflammatory Agent Design and Target Identification: Discovery of AF-45 as an IRAK4 Inhibitor to Treat Ulcerative Colitis and Acute Lung Injury” (J Med Chem, 2024).
The source made the active and inactive calls. No cut-off for these calls is given here.

Experiments:
[1] = Cytotoxicity against mouse RAW264.7 cells assessed as cell viability by MTT assay; format: toxicity, cell-based; design: concentration or dose not given beside the values; settings: read-out: Activity
RAW264.7 = experiment: Antiinflammatory activity in LPS-induced mouse RAW264.7 cells assessed as inhibition of IL-6 release at 10 uM pretreated for 30 mins followed by LPS stimulation and measured after 24 hrs by ELISA relative to control; format: functional; settings: time 24.5 hrs
Mus musculus [2] = experiment: Antiinflammatory activity in male C57BL/6 mouse model of DSS-induced ulcerative colitis assessed as reduction in spleen to body weight ratio at 100 mg/kg, po administered for 11 days with subsequent administration of DSS for 8 days; format: functional, organism-based; settings: time 11.0 day
Mus musculus [3] = experiment: Antiinflammatory activity in male C57BL/6 mouse model of DSS-induced ulcerative colitis assessed as reduction in macrophage infiltration in colon at 100 mg/kg, po administered for 11 days with subsequent administration of DSS for 8 days by F4/80 labeling based immunohistochemistry analysis; format: functional, organism-based; settings: time 11.0 day
Mus musculus [4] = experiment: Antiinflammatory activity in male C57BL/6 mouse model of DSS-induced ulcerative colitis assessed as restoration of protein status at 100 mg/kg, po administered for 11 days with subsequent administration of DSS for 8 days by H and E staining based analysis; format: functional, organism-based; settings: time 11.0 day
Mus musculus [5] = experiment: Anti-colitis activity in male C57BL/6 mouse model of DSS-induced ulcerative colitis assessed as colon length at 100 mg/kg, po administered for 11 days with subsequent administration of DSS for 8 days (reference value: 5.2 cm); format: functional; settings: time 11 day
Mus musculus [6] = experiment: Antiinflammatory activity in male C57BL/6 mouse model of DSS-induced ulcerative colitis assessed as reduction in macrophage infiltration in spleen at 100 mg/kg, po administered for 11 days with subsequent administration of DSS for 8 days by F4/80 labeling based immunohistochemistry analysis; format: functional, organism-based; settings: time 11.0 day
Mus musculus [7] = experiment: Antiinflammatory activity in male C57BL/6 mouse model of DSS-induced ulcerative colitis assessed as reduction in colonic structure destruction at 100 mg/kg, po administered for 11 days with subsequent administration of DSS for 8 days by H and E staining based analysis; format: functional, organism-based; settings: time 11.0 day
Mus musculus [8] = experiment: Antiinflammatory activity in male C57BL/6 mouse model of DSS-induced ulcerative colitis assessed as preservation of goblet cells at 100 mg/kg, po administered for 11 days with subsequent administration of DSS for 8 days by H and E staining based analysis; format: functional, organism-based; settings: time 11.0 day
Mus musculus [9] = experiment: Antiinflammatory activity in LPS induced C57BL/6 mouse model of acute lung injury assessed as inhibition of IL-6 release in BALF at 20 mg/kg, ip preadministered for 30 mins followed by LPS administration and measured after 6 hrs by ELISA; format: functional, organism-based; settings: time 6.5 hrs
Mus musculus [10] = experiment: Antiinflammatory activity in LPS induced C57BL/6 mouse model of acute lung injury assessed as reduction in macrophage infiltration in lung at 20 mg/kg, ip preadministered for 30 mins followed by LPS administration and measured after 6 hrs by F4/80 labeling based immunohistochemical analysis; format: functional, organism-based; settings: time 6.5 hrs
Mus musculus [11] = experiment: Antiinflammatory activity in LPS induced C57BL/6 mouse model of acute lung injury assessed as reduction in over activation of spleen at 20 mg/kg, ip preadministered for 30 mins followed by LPS administration and measured after 6 hrs by F4/80 labeling based immunohistochemical analysis; format: functional, organism-based; settings: time 6.5 hrs
Mus musculus [12] = experiment: Antiinflammatory activity in LPS induced C57BL/6 mouse model of acute lung injury assessed as reduction in number of macrophages in spleen at 20 mg/kg, ip preadministered for 30 mins followed by LPS administration and measured after 6 hrs by F4/80 labeling based immunohistochemical analysis; format: functional, organism-based; settings: time 6.5 hrs
Mus musculus [13] = experiment: Antiinflammatory activity in LPS induced C57BL/6 mouse model of acute lung injury assessed as inhibition of IL-6 release in serum at 20 mg/kg, ip preadministered for 30 mins followed by LPS administration and measured after 6 hrs by ELISA; format: functional, organism-based; settings: time 6.5 hrs
Mus musculus [14] = experiment: Antiinflammatory activity in LPS induced C57BL/6 mouse model of acute lung injury assessed as inhibition of TNFalpha release in serum at 20 mg/kg, ip preadministered for 30 mins followed by LPS administration and measured after 6 hrs by ELISA; format: functional, organism-based; settings: time 6.5 hrs
Mus musculus [15] = experiment: Antiinflammatory activity in LPS induced C57BL/6 mouse model of acute lung injury assessed as reduction in white pulp fusion at 20 mg/kg, ip preadministered for 30 mins followed by LPS administration and measured after 6 hrs by H and E staining based analysis; format: functional, organism-based; settings: time 6.5 hrs
Mus musculus [16] = experiment: Antiinflammatory activity in LPS induced C57BL/6 mouse model of acute lung injury assessed as reduction in spleen over activation at 20 mg/kg, ip preadministered for 30 mins followed by LPS administration and measured after 6 hrs by H and E staining based analysis; format: functional, organism-based; settings: time 6.5 hrs
Mus musculus [17] = experiment: Antiinflammatory activity in LPS induced C57BL/6 mouse model of acute lung injury assessed as inhibition of TNFalpha release in BALF at 20 mg/kg, ip preadministered for 30 mins followed by LPS administration and measured after 6 hrs by ELISA; format: functional, organism-based; settings: time 6.5 hrs
[18] = target: T1, Lymphocyte antigen 96 (Mus musculus) (UniProt Q9JHF9); experiment: Thermal stabilization of MD2 in mouse RAW264.7 cells assessed as reduction in decomposition at 10 uM at 45 to 51 degreeC measured after 4 hrs by CETSA; format: cell-based
T1 sequence (whole entry): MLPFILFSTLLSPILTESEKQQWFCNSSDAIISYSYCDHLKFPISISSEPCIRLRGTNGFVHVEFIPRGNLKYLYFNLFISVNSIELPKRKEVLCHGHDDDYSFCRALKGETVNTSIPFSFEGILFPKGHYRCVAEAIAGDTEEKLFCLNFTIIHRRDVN

Structure (SMILES) | viability [1] | inhibition at 10 µM (RAW264.7) | other results
Cn1c(CNC(=O)O[C@H]2CC[C@@H](N)CC2)nc2ccccc21 | 90.1% | 52.8% | 
N[C@H]1CC[C@@H](OC(=O)c2nn(-c3ccccc3)ccc2=O)CC1 | 107% |  | inhibition (RAW264.7): inactive
COc1cc2ncnc(O[C@H]3CC[C@H](N)CC3)c2cc1OC | 93.7% | 57.4% | 
N[C@H]1C[C@@H](OC(=O)c2nn(-c3ccccc3)ccc2=O)C1 | 89% | 33.2% | 
COc1cc2ncnc(Oc3cccc(NC(=O)N[C@H]4CC[C@@H](NC(=O)c5ccc(C)cc5)CC4)c3)c2cc1OC | 124% | 72.7% | 
COc1cc2ncnc(Oc3cccc(NC(=O)N[C@H]4CC[C@@H](NC(=O)OC(C)(C)C)CC4)c3)c2cc1OC | 92.1% | 2.1% | 
Nc1ccc(O)c(C(=O)O)c1 [MESALAMINE] |  |  | Activity (Mus musculus [2]): Active; Activity (Mus musculus [3]): Active; Activity (Mus musculus [4]): Active; Activity (Mus musculus [5]): 6 cm; Activity (Mus musculus [6]): Active; Activity (Mus musculus [7]): Active; Activity (Mus musculus [8]): Active
N[C@H]1CC[C@@H](Oc2ncnc3cc(Cl)ccc23)CC1 | 98.8% | 53.1% | 
COc1cc2ncnc(Oc3cccc(NC(=O)N[C@H]4CC[C@@H](NC(=O)c5ccccn5)CC4)c3)c2cc1OC | 116% | 45.4% | 
COc1cc2ncnc(Oc3cccc(NC(=O)N[C@H]4CC[C@@H](NS(=O)(=O)c5ccccc5)CC4)c3)c2cc1OC | 112% | 16% | 
COc1cc2ncnc(N[C@H]3CC[C@@H](NCCCN(C)C)CC3)c2cc1OC | 96.5% | 11.1% | 
COc1cc2ncnc(Oc3cccc(NC(=O)O[C@H]4CC[C@@H](N)CC4)c3)c2cc1OC | 96.5% | 73.4% | 
CCN1CCN(CCOc2ncnc3cc(OC)c(OC)cc23)CC1 | 90.1% | 40% | 
COc1cc2ncnc(Oc3cccc(NC(=O)N[C@H]4CC[C@@H](NC(=O)c5ccc(F)cc5)CC4)c3)c2cc1OC | 123% | 52.2% | 
Cn1c(CNC(=O)O[C@H]2C[C@@H](N)C2)nc2ccccc21 | 97.1% | 44.7% | 
COc1cc2ncnc(Oc3cccc(NC(=O)N[C@H]4CC[C@@H](N)CC4)c3)c2cc1OC | 91.5% | 77.3% | 
COc1cc2ncnc(Oc3cccc(NC(=O)O[C@H]4C[C@@H](N)C4)c3)c2cc1OC | 106% | 46.9% | 
COc1cc2nc(Cl)nc(O[C@H]3CC[C@@H](N)CC3)c2cc1OC | 105% | 34.3% | 

Structure (SMILES) | viability [1] | inhibition at 10 µM (RAW264.7) | other results
CN[C@H]1CC[C@@H](Nc2ncnc3cc(OC)c(OC)cc23)CC1 | 98.2% |  | inhibition (RAW264.7): inactive
COc1cc2ncnc(NCCc3cccs3)c2cc1OC | 88.1% | 16.1% | 
COc1cc2c(N[C@H]3CC[C@@H](N)CC3)ncnc2cc1OCc1ccccc1 | 86.7% | 88.6% | 
COc1cc2ncnc(N[C@H]3CC[C@@H](NC(=O)c4ccc(C)cc4)CC3)c2cc1OC | 97.8% | 42.3% | 
C[C@@H]1C[C@H]2[C@@H]3CCC4=CC(=O)C=C[C@]4(C)[C@@]3(F)[C@@H](O)C[C@]2(C)[C@@]1(O)C(=O)CO |  |  | Activity (Mus musculus [9]): Active; Activity (Mus musculus [10]): Active; Activity (Mus musculus [11]): inactive; Activity (Mus musculus [12]): inactive; Activity (Mus musculus [13]): Active; Activity (Mus musculus [14]): Active; Activity (Mus musculus [15]): Active; Activity (Mus musculus [16]): Active; Activity (Mus musculus [17]): Active
COc1cc2ncnc(N[C@H]3CC[C@@H](NC(=O)c4ccc(F)cc4)CC3)c2cc1OC | 102% | 39.9% | 
COc1cc2ncnc(Oc3cccc(NC(=O)N[C@H]4CC[C@@H](NC(=O)c5cccc(F)c5)CC4)c3)c2cc1OC | 121% | 45.4% | 
COc1cc2ncnc(N[C@H]3CC[C@@H](N)CC3)c2cc1OC | 91.1% | 83.7% | 
COc1cc2ncnc(N[C@H]3CC[C@@H](NS(=O)(=O)c4ccc(C)cc4)CC3)c2cc1OC | 104% | 45.4% | 
COc1ccc(C(=O)/C=C/c2cccc(OC)c2OC)cc1 |  |  | Activity [18]: Active
COc1cc2ncnc(Oc3cccc(NC(=O)N[C@H]4CC[C@@H](NC(=O)c5ccc(F)cc5Cl)CC4)c3)c2cc1OC | 130% | 9.4% | 
N[C@H]1CC[C@@H](Oc2ncnc3ccccc23)CC1 | 103% | 76.8% | 
COCCOc1cc2ncnc(O[C@H]3CC[C@@H](N)CC3)c2cc1OCCOC | 98.6% | 52.7% | 
COc1cc2ncnc(Oc3cccc(NC(=O)N[C@H]4CC[C@@H](NC(=O)CCC5CCCC5)CC4)c3)c2cc1OC | 117% | 52.9% | 
COc1cc2ncnc(O[C@H]3CC[C@@H](N)CC3)c2cc1OC | 88.9% | 75.8% | 
COc1cc2ncnc(N[C@H]3CC[C@H](N)CC3)c2cc1OC | 108% | 64.6% | 
COc1cc2ncnc(N[C@H]3CC[C@@H](NCCO)CC3)c2cc1OC | 99.7% | 10.6% | 
